Measured values as given in paper PMC11481913, “Rational design of a flavoenzyme for aerobic nicotine catabolism” (mBio, 2024).

Molecular target: T1, Pnao (Pseudomonas putida, UniProt F8G0P1)
T1 construct: dimer
Test: FAD reduction at […] nm (stopped-flow); FAD-binding ratio by HPLC
Conditions: FAD co-purified with the enzyme

T1 sequence (F8G0P1 whole entry): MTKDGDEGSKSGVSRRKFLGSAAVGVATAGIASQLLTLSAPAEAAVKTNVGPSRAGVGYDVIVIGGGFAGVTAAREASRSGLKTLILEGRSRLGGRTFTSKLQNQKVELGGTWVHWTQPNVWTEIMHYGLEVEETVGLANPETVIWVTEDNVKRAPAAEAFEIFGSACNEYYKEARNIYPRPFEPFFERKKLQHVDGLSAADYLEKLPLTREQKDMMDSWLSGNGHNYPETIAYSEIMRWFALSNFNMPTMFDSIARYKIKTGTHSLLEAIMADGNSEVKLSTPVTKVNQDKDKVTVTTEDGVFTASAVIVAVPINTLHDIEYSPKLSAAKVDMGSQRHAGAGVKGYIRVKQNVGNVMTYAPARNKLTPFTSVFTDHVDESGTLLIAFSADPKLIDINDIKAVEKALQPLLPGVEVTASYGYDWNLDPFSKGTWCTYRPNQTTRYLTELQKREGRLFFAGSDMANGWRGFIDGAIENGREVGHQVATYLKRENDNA

Which “FAD reduction at 450 nm (stopped-flow); FAD-binding ratio by HPLC” value does the source give for `Cc1cc2nc3c(=O)[nH]c(=O)nc-3n(C[C@H](O)[C@H](O)[C@H](O)COP(=O)(O)OP(=O)(O)OC[C@H]3O[C@@H](n4cnc5c(N)ncnc54)[C@H](O)[C@@H]3O)c2cc1C` [FAD, flavin adenine dinucleotide] here?
The value was “the enzyme-bound FAD is transformed from the oxidized to the hydroquinone”.
